The results in this text go back to patent US4443466A, “4-Benzyl- and 4-benzoyl-substituted imidazole derivatives and use as medicaments” (priority 1980, dated 1984).

Data set [1] has as its system anesthetized Sprague-Dawley rats (blood pressure, pulse frequency). Nature of the data set: Blood pressure and pulse frequency in anesthetized normal-weight Sprague-Dawley rats (i.v.). Conditions: for minimal effective dose: Rattus norvegicus, iv. The format is in vivo, rat (Sprague-Dawley). How it is done: The anti-hypertensive properties of the imidazole derivatives of the present invention have been determined according to the following procedure. Sprague-Dawley rats of normal weight were first anesthetized with urethane. After this, the femoral artery was connected by way of a polyethylene tube with a blood pressure transducer. The test substance was then injected into the femoral vein and the blood pressure and the pulse frequency were registered with a recorder. The minimum doses producing a significant change were found, i.e. ± at least 20% in the case of blood pressure, and ± at least 3% in the case of pulse frequency.

A short description of data set [2]: Preventive effect on formation of indomethacin-induced ulcers. The format is in vivo, rat (female Sprague-Dawley). Conditions: rat, in vivo, iv; LD50 (mouse, i.v.) / ED50 (ulcer); read-out: Therapeutic Index.
Data set [3] relates to indomethacin-induced ulcers. Described as above. The format is in vivo, rat (female Sprague-Dawley). Conditions: for ED50: Rattus norvegicus, ip, 4 h, read-out: ED50 (ulcer prevention).
The subject of data set [4] is male mice on a 55° C. hot plate. The data set is described as follows: Hot plate test. The format is in vivo, mouse (male). The conditions noted are these: for change in vivo at 1.5 mg/kg: 1.5 mg/kg i.p. How it is done:
(§1) The analgesic activity of the compounds of formula (I) was tested in the following manner: […]
Test compounds or saline were given i.p. to male mice. Thirty minutes thereafter, the time for which the mice remained on a 55° C. plate was recorded. The results are expressed as compared to saline.

Data set [5] concerns rats (motility, muscle tone, catalepsia). Nature of the data set: Tranquilizing activity: Irwin screen in rats. Format: in vivo, rat. How it is done:
(§2) The tranquilizing activity of the compounds was determined by the following methods:
(1) Irwin screen in rats (Irwin S., Psychopharmacologia 13:222, 1968)
Especially sedatory and cataleptic activity and effects on muscle tone are observed.

Data set [6] concerns cattle (avoidance, muscle tone). Nature of the data set: Tranquilizing or taming effect on cattle. The format is in vivo. How it is done: as §2
(2) Tranquilizing or taming effect on cattle:
The test compounds were administered i.m. to cattle, mostly to heifers (150-200 kg).
The most suitable tranquilized state of an animal includes the ability to retain the upright position and coordination with minimal avoidance reactions to painful stimuli and handling. Thus, a combination of sedative and analgesic potency is required.

Data set [7] can be described thus: Acute toxicity in female NMRI mice, i.v. The conditions noted are these: in vivo, iv, mouse. How it is done: Acute toxicity was determined by using female mice of NMRI-Strain with an age of about 7 months and weighing 30-40 g. The administration of the test compound was i.v.
For data set [8], the system named is spontaneous hypertensive rats (SHR) (blood pressure). The data set is described as follows: Blood pressure in unanesthetized Okamoto-Aoki spontaneous hypertensive rats (SHR), peroral. Format: in vivo, rat (Okamoto-Aoki SHR). How it is done:
In a further test for anti-hypertensive properties, unanesthetized Okamoto-Aoki spontaneous hypertensive rats (SHR) were used. The test derivative was administered perorally by way of a tube into the stomach. The blood pressure was measured from the tail using an indirect bloodless method.

The subject of data set [9] is acetic acid-induced writhing. The data set is described as follows: Writhing test (acetic acid).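 On Analgesic activity: ++ means marked effect and + means moderate effect.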 The format is in vivo, rat. How it is done: as §1
The compounds studied and saline were administered p.o. to rats. Forty-five minutes later, 1 ml of 1% acetic acid was administered i.p. The number of writhes was recorded in the following 25 minute period (Koster et al: Fed. Proc. 18:412, 1959).

Data set [10] relates to carrageenan-induced oedema. Nature of the data set: Inhibition of carrageenan-induced oedema.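 On Anti-inflammatory activity: ++ means marked effect and + means moderate effect.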 Format: in vivo, rat. How it is done: The anti-inflammatory activity of the compounds of the invention was determined by inhibition of the carrageenan induced oedema in rats by the compounds examined (Winter C. A. et al., Proc. Soc. Exp. Biol. Med. 111:544, 1962).
The next data set relates to rats (blood pressure). The data set is described as follows: Applicant's experiments on prior-art imidazoles: anti-hypertensive activity / blood pressure in rats. Format: in vivo, rat. The conditions noted are these: for antihypertensive activity: found by our experiments.
The mark [11] stands for this setting: read-out: Blood Pressure Minimum Dose having a significant lowering effect.
Setting [12] is: read-out: Pulse frequency Minimum Dose having a significant lowering effect.
[13] abbreviates: 10 μg/kg i.v., anesthetized rats, on an average.
The mark [14] stands for this setting: Mus musculus, ip, 0.5 h, read-out: increase in HP-time (%).

Read-outs that look alike come from different tables or passages of the source.

`Cc1cccc(Cc2c[nH]cn2)c1C` [4-(2',3'-dimethylbenzyl)imidazole, 4-(2',3'-Dimethylbenzyl)imidazole]: the minimal effective dose in data set [1] (setting [11]) fell in the range of 0.01 to 0.1 mg/kg; in [1] (read-out: Pulse frequency Minimum Dose having a significant increasing effect), 3 to 10 mg/kg; in data set [1] (setting [12]) it was 0.01 to 1 mg/kg. Besides, the selectivity ratio in data set [2] was found to be 7000. Further, in data set [3], the ED50 turned out to be 0.005 mg/kg. Moreover, in data set [4] (0.6 mg/kg), the Analgesic activity result was “+”. Besides, the change in vivo at 0.6 mg/kg in data set [4] (Mus musculus, ip, 0.5 h, 0.6 mg/kg i.p., read-out: increase in HP-time (%)) turned out to be 200%. In addition, the decrease of motility entry in data set [5] (1.0 mg/kg) is on record as “+”. Besides, in data set [5] (1.0 mg/kg), the “loss of muscle tone” value is listed as “+”. Besides, the loss of avoidance entry in data set [6] (0.1 mg/kg i.m.) was “++”. Besides, in data set [7], the median lethal dose (LD50) came out at 35 mg/kg.

As to `Cc1cc(C)c(Cc2c[nH]cn2)c(C)c1` [4-(2',4',6'-trimethylbenzyl)imidazole, 4-(2',4',6'-Trimethylbenzyl)imidazole], in data set [1] (setting [11]), the minimal effective dose was 0.05 to 0.2 mg/kg. Also, in [1] (setting [12]), the minimal effective dose is 0.03 mg/kg. In addition, the selectivity ratio in data set [2] worked out at 2100. For the same molecule, the 50% effective dose (ED50) in data set [3] was 0.03 mg/kg. In data set [5] (1.0 mg/kg), the catalepsia entry is “+” and the decrease of motility entry is reported as “++”. Also, in [6] (0.1 mg/kg i.m.), the loss of avoidance result is “+” and the “loss of muscle tone” value is “+”. In addition, in data set [7], the 50% lethal dose (LD50) stood at 63 mg/kg.

As to `Cc1cccc(C)c1Cc1cnc[nH]1` [4-(2',6'-dimethylbenzyl)imidazole, 4-(2',6'-Dimethylbenzyl)imidazole], the “lowering of the blood pressure” value in data set [1] (1 μg/kg i.v., anesthetized rats) is recorded as “detectable lowering of the blood pressure”. Further, the blood pressure lowering entry in [1] (3 μg/kg i.v., anesthetized rats) was “quite clear”. Moreover, in [1] (setting [13]), the “decrease of pulse frequency” value is reported as 12% and the “reduction of blood pressure” value is 30%. In [1] (LD50 40 mg/kg i.v. in mice versus blood pressure lowering doses), the therapeutic range result is “very broad”. Besides, in data set [1] (setting [11]), the minimal effective dose lay within 0.003 to 0.1 mg/kg. Besides, in data set [1] (setting [12]), the minimal effective dose is 0.003 mg/kg. Moreover, the “duration of the effect” value in [1] (i.v., anesthetized rats, determination then interrupted) was “at least 50 minutes”. In data set [8] (awake SHR, 100 μg/kg p.o., four hours after administration), the “decrease of blood pressure” value is recorded as “about 20%”. The “decrease of blood pressure” value in data set [8] (awake SHR, 300 μg/kg p.o., four hours after administration) was found to be 25%. The selectivity ratio in [2] amounted to 8000. In addition, the “prevention of the formation of ulcers” value in data set [3] (5 μg/kg i.p.) is on record as “completely prevented the formation of ulcers”. For the same molecule, the ED50 in data set [3] stood at 0.005 mg/kg. In data set [5] (1.0 mg/kg), the decrease of motility entry is reported as “++” and the “loss of muscle tone” value is on record as “+”. Moreover, in [6] (0.05 mg/kg i.m.), the loss of avoidance entry is reported as “++” and the “loss of muscle tone” value is recorded as “+”. Also, the LD50 in data set [7] is 40 mg/kg.

For the molecule `Clc1ccccc1Cc1c[nH]cn1` [4-(2'-chlorobenzyl)imidazole, 4-(2'-Chlorobenzyl)imidazole], the selectivity ratio in data set [2] turned out to be 2170. In addition, the median effective dose (ED50) in data set [3] was 0.03 mg/kg. Moreover, the Analgesic activity entry in data set [4] (1.5 mg/kg) is recorded as “+”. Also, the change in vivo at 1.5 mg/kg in data set [4] (setting [14]) amounted to 200%. In data set [5] (0.25 mg/kg), the catalepsia result was “+” and the decrease of motility entry is “+”. Moreover, the loss of avoidance result in data set [6] (0.1 mg/kg i.m.) is on record as “+”. In addition, the LD50 in data set [7] was found to be 65 mg/kg.

Regarding `Cc1cccc(Cc2c[nH]cn2)c1` [4-(3'-methylbenzyl)imidazole, 4-(3'-Methylbenzyl)imidazole], the selectivity ratio in data set [2] came to 1900. Moreover, the ED50 in [3] came out at 0.02 mg/kg. Also, the Analgesic activity result in data set [9] (30 mg/kg) was “++”. The W-number in data set [9] (30 mg/kg p.o.) stood at 0. Also, the change in vivo at 1.5 mg/kg in data set [4] (setting [14]) was 50%. In addition, in data set [10] (100 mg/kg p.o. in the rat), the Anti-inflammatory activity entry is “+”. Further, the inhibition in vivo at 100 mg/kg in data set [10] (Rattus norvegicus, po, read-out: inhibition carrageenan-induced oedema (%)) was determined as 61%. Also, the loss of avoidance entry in data set [6] (0.1 mg/kg i.m.) is “+”. In [7], the LD50 amounted to 38 mg/kg.

Turning to `Cc1cccc(C)c1C(O)c1c[nH]cn1` (stereo not drawn) [4-[α-(2',6'-Dimethylphenyl)]hydroxymethylimidazole], in data set [1] (300 μg/kg i.v.), the “lowering of blood pressure” value is reported as “noticeable”. For the same molecule, the results for the minimal effective dose in data set [1] (setting [11]) and in data set [1] (setting [12]) were 0.1 to 3 mg/kg and 0.1 mg/kg, respectively. In addition, the “decrease of blood pressure” value in data set [8] (awake SHR rats, 3 mg/kg p.o., 3 hours after administration) came to 20%. Also, the figures for the “prevention of the formation of ulcers” value in [3] (0.5 mg/kg) and in data set [3] (5 mg/kg) were “the prevention was partial” and “completely prevented the formation of ulcers”, respectively. The molecule further yielded a median lethal dose (LD50) in [7] of 125 mg/kg.

As to `Cc1[nH]cnc1Cc1ccccc1` [4-benzyl-5-methylimidazole], in the data set with rats (blood pressure), the antihypertensive activity entry is recorded as “no antihypertensive activity”. Besides, in the data set on rats (blood pressure) (rats, 1 mg/kg i.v.), the “blood pressure change in rats” value was “the blood pressure rises”. Further, in the data set with rats (blood pressure) (rats, at any dosage), the “blood pressure lowering effect in rats” value was “no blood pressure lowering effect”.

For the molecule `CCc1[nH]cnc1Cc1ccccc1` [5(4)-ethyl-4(5)-benzylimidazole], in the data set on rats (blood pressure), the antihypertensive activity result is on record as “no antihypertensive activity”.
